The values below come from ChEMBL document CHEMBL2146457, “Development of 'DFG-out' inhibitors of gatekeeper mutant kinases” (Bioorg Med Chem Lett, 2012).

The subject of one data set is Rattus norvegicus. Description: Oral bioavailability in rat at 2 mg/kg. The format is ADME, organism-based. The following applies: in vivo.
The nature of data set [1]: Clearance in rat at 1 mg/kg, iv. Particulars: in vivo. The arrangement: dose 1 mg/kg, route intravenous. It counts as ADME, organism-based.
Data set [2] is described as follows: AUC in rat at 1 mg/kg, iv. The format is ADME, organism-based. On the set-up: dose 1 mg/kg, route intravenous. Particulars: plasma.
Data set [3] in a line: Cytotoxicity against mouse BA/F3 cells expressing imatinib resistant Bcr-Abl […] mutant. The format is functional, cell-based. Particulars: BaF3.
The nature of data set [4]: AUC in rat at 2 mg/kg, po. It counts as ADME, organism-based. On the set-up: dose 2 mg/kg, route oral. Particulars: plasma.
A short description of data set [5]: Cytotoxicity against mouse BA/F3 cells expressing wild type Bcr-Abl. The format is functional, cell-based. The following applies: BaF3.
A short description of data set [6]: Clearance in rat at 2 mg/kg, po. It counts as ADME, organism-based. On the set-up: dose 2 mg/kg, route oral. Particulars: in vivo.
Data set [7] in a line: Cmax in rat at 1 mg/kg, iv. The format is ADME, organism-based. The arrangement: dose 1 mg/kg, route intravenous. Particulars: in vivo.
Data set [8] can be described thus: Half life in rat at 2 mg/kg, po. It counts as ADME, organism-based. On the set-up: dose 2 mg/kg, route oral. The following applies: in vivo.
Data set [9] in a line: MRT in rat at 1 mg/kg, iv. The format is ADME, organism-based. On the set-up: dose 1 mg/kg, route intravenous. Particulars: in vivo.
Data set [10] is described as follows: MRT in rat at 2 mg/kg, po. The format is ADME, organism-based. On the set-up: dose 2 mg/kg, route oral. Particulars: in vivo.
Data set [11] is described as follows: Cytotoxicity against wild type mouse BA/F3 cells. The format is cell-based. The following applies: BaF3.
Data set [12] can be described thus: Volume of distribution at steady state in rat at 1 mg/kg, iv. The format is ADME, organism-based. On the set-up: dose 1 mg/kg, route intravenous. The following applies: in vivo, read-out: Vdss.
Data set [13] in a line: Half life in rat at 1 mg/kg, iv. On the set-up: dose 1 mg/kg, route intravenous. The following applies: in vivo. It counts as ADME, organism-based.
A short description of data set [14]: Cmax in rat at 2 mg/kg, po. The format is ADME, organism-based. The arrangement: dose 2 mg/kg, route oral. Particulars: in vivo.
Data set [15] can be described thus: Cytotoxicity against mouse parental BA/F3 cells. Particulars: BaF3.

A value given as a limit tells only on which side of the number the result lay.

As usually defined, the clearance is the volume of plasma or blood freed of the substance per unit of time. By AUC is commonly meant the area under the concentration-time curve, a measure of exposure. Usually EC50 stands for the midpoint of the concentration-response curve. The term CL/F denotes the apparent clearance, not corrected for the fraction that reaches the circulation. A word on the Cmax: it is the peak of the concentration-time curve. A word on the half-life: it is the time needed for the level to fall by half in the phase considered. Low values mean fast loss, high ones slow loss. For orientation: MRT means a mean duration of stay, worked out from the concentration-time curve. As to `Cc1cn(-c2cc(NC(=O)c3cccc(-c4ccc5nc(NC(=O)C6CC6)sc5n4)c3)cc(C(F)(F)F)c2)cn1`, in the data set with Rattus norvegicus, the F worked out at 3.7%. Moreover, the clearance in data set [1] worked out at 9.5 mL/min/kg. Besides, the figures for the AUC in data set [2] and in [4] were 1850 ng·h/mL and 136 ng·h/mL, respectively. The figures for the EC50 in data set [3], in data set [5] and in data set [11] were 190 nM, 380 nM and 1990 nM, respectively. Moreover, in data set [6], the CL/F was determined as 303 mL/min/kg. The figures for the Cmax in [7] and in data set [14] were 672 ng/mL and 32 ng/mL, respectively. The half-life in data set [8] is 3.7 h; in data set [13] it was 2.4 h. Further, the MRT in data set [9] is 3.1 h; in [10] it was 5.3 h. For the same molecule, in [12], the Vd worked out at 1.7 L/kg.
With `Cc1cn(-c2cc(NC(=O)c3ccc(F)c(-c4ccc5nc(NC(=O)C6CC6)sc5n4)c3)cc(C(F)(F)F)c2)cn1`, the EC50 in data set [3] was 590 nM; in data set [5], 20 nM; in data set [11], over 10000 nM.
In the same order, the values of `CCN1CCN(Cc2ccc(NC(=O)Nc3cccc(-c4ccc5nc(NC(=O)C6CC6)sc5n4)c3)cc2C(F)(F)F)CC1` are 13 nM, 18 nM and 690 nM.
In the case of `O=C(Nc1cccc(C(F)(F)F)c1)c1cccc(-c2ccc3nc(NC(=O)C4CCNCC4)sc3n2)c1`, the concentration for a half-maximal effect (EC50) in data set [3], in data set [5] and in data set [11] was over 10000 nM each time.
For `O=C(Nc1nc2ccc(-c3cccc(C(=O)Nc4cccc(C(F)(F)F)c4)c3)nc2s1)NC1CCNCC1`, the EC50 in data set [3] is 7180 nM; in [5], 7600 nM; in [11], over 10000 nM.
For `CCN1CCN(Cc2ccc(NC(=O)c3ccc(C)c(-c4ccc5nc(NC(=O)C6CC6)sc5n4)c3)cc2C(F)(F)F)CC1`, the EC50 in [3] came out at 60 nM; in data set [5] it was 1 nM; in data set [11], 1230 nM.
As to `Cc1cn(-c2cc(NC(=O)c3ccc(C)c(-c4ccc5nc(NC(=O)C6CC6)sc5n4)c3)cc(C(F)(F)F)c2)cn1`, the values for the EC50 in data set [3], in data set [5] and in data set [11] were 560 nM, 30 nM and 4670 nM, respectively.
`O=C(Nc1ccc(-n2ccnc2)cc1)c1cccc(-c2ccc3nc(NC(=O)C4CC4)sc3n2)c1`: the EC50 in data set [3], in data set [5] and in data set [11] was over 10000 nM in each case.
For the molecule `CCN1CCN(Cc2ccc(C(=O)Nc3cccc(-c4ccc5nc(NC(=O)C6CC6)sc5n4)c3)cc2C(F)(F)F)CC1`, the EC50 in data set [3] is 780 nM; in [5], 200 nM; in data set [11], over 10000 nM.
Take `Cc1cn(-c2cc(NC(=O)Nc3cccc(-c4ccc5nc(NC(=O)C6CC6)sc5n4)c3)cc(C(F)(F)F)c2)cn1`: the EC50 is 550 nM in data set [3], 1240 nM in data set [5] and over 10000 nM in data set [11].
In the same order, the values of `CCN1CCN(Cc2ccc(NC(=O)c3ccc(F)c(-c4ccc5nc(NC(=O)C6CC6)sc5n4)c3)cc2C(F)(F)F)CC1` are 300 nM, 20 nM and over 10000 nM.
Taken in the same sequence, the figures for `O=C(Nc1cccc(C(F)(F)F)c1)c1cccc(-c2ccc3nc(Nc4ccc(S(=O)(=O)N5CCNCC5)cc4)sc3n2)c1` were over 10000 nM, 6210 nM and over 10000 nM.
As to `CC(=O)Nc1nc2ccc(-c3cccc(C(=O)Nc4cccc(C(F)(F)F)c4)c3)nc2s1`, the EC50 in [3] is 3770 nM; in data set [5], 5000 nM; in data set [11], over 10000 nM.
In the case of `Cc1nc(Nc2nc3ccc(-c4cccc(C(=O)Nc5cccc(C(F)(F)F)c5)c4)nc3s2)cc(N2CCNCC2)n1`, the values for the EC50 in data set [3], in [5] and in data set [11] were 2410 nM, 1900 nM and 6740 nM, respectively.
Consider `CC(=O)N1CCN(CCC(=O)Nc2nc3ccc(-c4cccc(C(=O)Nc5cccc(C(F)(F)F)c5)c4)nc3s2)CC1`, for which the values for the EC50 in data set [3], in data set [5] and in [11] were over 10000 nM, 5210 nM and over 10000 nM, respectively.
Turning to `CCN1CCN(Cc2ccc(NC(=O)c3cccc(-c4ccc5nc(N)sc5n4)c3)cc2C(F)(F)F)CC1`, the EC50 in [3], in data set [5] and in data set [11] was over 10000 nM throughout.
On to `CCN1CCN(Cc2ccc(NC(=O)c3cccc(-c4ccc5nc(Nc6ccccn6)sc5n4)c3)cc2C(F)(F)F)CC1`, for which the EC50 in data set [3] stood at 276 nM; in data set [5] it was 146 nM; in data set [11] it was 3530 nM.
`CCN1CCN(Cc2ccc(NC(=O)c3cccc(-c4ccc5nc(NC(C)=O)sc5n4)c3)cc2C(F)(F)F)CC1`: the results for the EC50 in data set [3], in data set [5] and in [11] were 193 nM, 139 nM and 4160 nM, respectively.
In turn, `CCN1CCN(Cc2ccc(NC(=O)c3cccc(-c4ccc5nc(NC(=O)C6CC6)sc5n4)c3)cc2C(F)(F)F)CC1` came in with a F with Rattus norvegicus of 18.8%. In data set [1], this molecule gave a clearance of 13.7 mL/min/kg. In addition, the AUC is 1230 ng·h/mL in data set [2] and 462 ng·h/mL in data set [4]. For the same molecule, the EC50 came to 156 nM in data set [3], 3080 nM in data set [15] and 3080 nM in [11]. In [6], this molecule registered a CL/F of 74.4 mL/min/kg. The Cmax in data set [7] was determined as 292 ng/mL; in [14] it was 53.1 ng/mL. For the same molecule, the half-life in data set [8] was 4.7 h; in [13], 5.8 h. For the same molecule, the figures for the MRT in [9] and in data set [10] were 8.1 h and 7.7 h, respectively. In addition, the Vd in data set [12] stood at 6.5 L/kg.
In the case of `O=C(Nc1cccc(C(F)(F)F)c1)c1cccc(-c2ccc3nc(NC(=O)C4CC4)sc3n2)c1`, the EC50 in [3] was determined as 960 nM; in data set [5] it was 420 nM; in data set [11], 910 nM.
In the same order, the values of `Nc1nc2ccc(-c3cccc(C(=O)Nc4cccc(C(F)(F)F)c4)c3)nc2s1` are over 10000 nM, over 10000 nM and over 10000 nM.
As to `O=C(Nc1ccc(N2CCNCC2)c(C(F)(F)F)c1)c1cccc(-c2ccc3nc(NC(=O)C4CC4)sc3n2)c1`, the EC50 was 2300 nM in [3], 2310 nM in data set [5] and 2300 nM in [11].
